Columns and labels:
TrCel6A = target: T1, TrCel6A (Trichoderma reesei, UniProt P07987); assay: Cellobiose inhibition of synergistic hydrolysis of 14C-BC by TrCel6A and EG TrCel5A; format: biochemical
T1 construct: TrCel6A was purified from the culture filtrate of Tr QM 9414 as described previously; made in house; host or cells: Trichoderma reesei QM 9414 culture filtrate (native producer)
Description: (§1) Here, we characterized the cellobiose and glucose inhibition of TrCel6A and its thermophilic counterpart, CtCel6A [9, 63]. First, the cellobiose inhibition of the synergistic hydrolysis of ^14C-BC by TrCel6A and TrCel5A was studied (Figure 7A). As TrCel6A was less sensitive to cellobiose inhibition than TrCel7A, the contribution of the cellobiose released during hydrolysis was not significant, and an average (DCB/DCB=0) over all time points was used in plotting (DCB/DCB=0) versus [cellobiose] (Figure 7D). No significant systematic variation of DCB/DCB=0 depending on hydrolysis time was observed. As in the case of GH7 CBHs, the IC50 value was found using Equations 5 and 6. Because the IC50 value for synergistic hydrolysis (Table 3) was of the same order as the apparent Ki value reported for TrCel5A [31], we further tested the inhibition of individual TrCel6A. BC is not a good substrate for TrCel6A, but its acid-treated derivative, BMCC, is readily degraded by the enzyme. Therefore, we prepared ^14C-BMCC by the heterogeneous acid hydrolysis of ^14C-BC. Without supplied cellobiose, both enzymes had similar activity with the ^14C-BMCC substrate, but CtCel6A was somewhat more resistant to cellobiose inhibition (Figure 7D, Table 3). The IC50 value for TrCel6A by itself was similar to that found for the synergistic hydrolysis. […]

CtCel6A = CtCel6A (Chaetomium thermophilum, UniProt G0SD43); assay: Inhibition of hydrolysis of 14C-BMCC by CtCel6A; format: biochemical; details: cellobiose; hydrolysis of 14C-BMCC by CtCel6A at 50°C
CtCel6A, sequence (G0SD43 entry or part of it): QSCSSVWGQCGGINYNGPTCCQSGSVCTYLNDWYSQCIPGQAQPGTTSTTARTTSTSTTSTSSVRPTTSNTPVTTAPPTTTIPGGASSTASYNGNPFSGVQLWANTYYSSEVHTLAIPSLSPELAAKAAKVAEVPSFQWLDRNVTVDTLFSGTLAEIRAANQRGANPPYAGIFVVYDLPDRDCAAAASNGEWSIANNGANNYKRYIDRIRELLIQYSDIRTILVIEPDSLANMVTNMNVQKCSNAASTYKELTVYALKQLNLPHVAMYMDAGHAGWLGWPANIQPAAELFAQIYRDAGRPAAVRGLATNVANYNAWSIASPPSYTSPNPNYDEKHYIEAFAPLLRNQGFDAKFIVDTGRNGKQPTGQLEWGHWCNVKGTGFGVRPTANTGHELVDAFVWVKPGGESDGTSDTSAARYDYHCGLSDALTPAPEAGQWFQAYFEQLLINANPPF
Description: as §1, with “^14C-BC.” for “^14C-BC. Without supplied cellobiose, both enzymes had similar activity with the ^14C-BMCC substrate, but CtCel6A was somewhat more resistant to cellobiose inhibition (Figure 7D, Table 3). The IC50 value for TrCel6A by itself was similar to that found for the synergistic hydrolysis.”
GH6 CBHs were assessed by observing the hydrolysis of ^14C-BMCC. ^14C-BMCC (0.25 g l^-1) was incubated (with shaking at 350 rpm) with CBH (0.25 μM) and N188BG (0.06 μM) in 50 mM sodium acetate buffer, pH 5.0, containing BSA (0.1 g l^-1). […]

TrCel12A = assay: Cellobiose effect on hydrolysis of 14C-amorphous cellulose by TrCel12A; format: biochemical, Trichoderma reesei; details: 35°C
Description: EGs are a diverse group of enzymes present in all efficient cellulase systems. Their best recognized function is their synergism with CBHs. Depending on the conditions, the degree of synergistic effect may be more than 10-fold. Therefore, the inhibition of the EG component may result in a drastic decrease in the rate of the synergistic hydrolysis of cellulose. The main soluble product of the EG-catalyzed cellulose hydrolysis is cellobiose, but some glucose and higher-order oligosaccharides are also produced. Here, we studied the cellobiose inhibition of the EGs TrCel7B, TrCel5A and TrCel12A with ^14C-amorphous cellulose substrate. The enzyme concentrations and hydrolysis times were adjusted so that the linear region of the time course was studied. The time courses for the hydrolysis of ^14C-amorphous cellulose by TrCel7B in the presence and absence of added cellobiose are shown in Figure 9A. For the results with TrCel5A and TrCel12A, see Additional file 1: Figure S5. […] This figure is reasonably well in line with that measured for TrCel7B on amorphous cellulose using isothermal titration calorimetry. […]
EGs were assessed on ^14C-amorphous cellulose. ^14C-amorphous cellulose (0.5 g l^-1) was incubated (with shaking at 700 rpm) with EG in 50 mM sodium acetate buffer, pH 5.0, containing BSA (0.1 g l^-1) in the presence and absence of added cellobiose. […]

TrCel5A = target: T2, TrCel5A (Trichoderma reesei, UniProt P07982); set-up: method as in doi:10.1016/j.tca.2005.01.025; details: TrCel5A acting on cellohexaose; read-out: Ki value for cellobiose inhibition; cited from earlier work
T2 construct: TrCel7B, TrCel5A, and TrCel12A were purified from the culture filtrate of Tr QM 9414; made in house; host or cells: Trichoderma reesei QM 9414 culture filtrate (native producer)
T2 sequence (P07982 22-418): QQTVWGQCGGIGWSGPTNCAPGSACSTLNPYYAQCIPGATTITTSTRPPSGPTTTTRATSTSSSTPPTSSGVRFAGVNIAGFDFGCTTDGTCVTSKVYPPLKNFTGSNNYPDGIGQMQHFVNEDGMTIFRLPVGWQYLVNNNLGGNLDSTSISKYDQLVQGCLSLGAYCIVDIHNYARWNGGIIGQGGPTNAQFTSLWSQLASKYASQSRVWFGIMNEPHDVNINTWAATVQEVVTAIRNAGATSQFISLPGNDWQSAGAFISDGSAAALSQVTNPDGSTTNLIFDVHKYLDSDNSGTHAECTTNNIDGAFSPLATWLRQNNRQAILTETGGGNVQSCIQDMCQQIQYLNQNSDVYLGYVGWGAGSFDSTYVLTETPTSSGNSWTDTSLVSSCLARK

T1 sequence (P07987 25-471): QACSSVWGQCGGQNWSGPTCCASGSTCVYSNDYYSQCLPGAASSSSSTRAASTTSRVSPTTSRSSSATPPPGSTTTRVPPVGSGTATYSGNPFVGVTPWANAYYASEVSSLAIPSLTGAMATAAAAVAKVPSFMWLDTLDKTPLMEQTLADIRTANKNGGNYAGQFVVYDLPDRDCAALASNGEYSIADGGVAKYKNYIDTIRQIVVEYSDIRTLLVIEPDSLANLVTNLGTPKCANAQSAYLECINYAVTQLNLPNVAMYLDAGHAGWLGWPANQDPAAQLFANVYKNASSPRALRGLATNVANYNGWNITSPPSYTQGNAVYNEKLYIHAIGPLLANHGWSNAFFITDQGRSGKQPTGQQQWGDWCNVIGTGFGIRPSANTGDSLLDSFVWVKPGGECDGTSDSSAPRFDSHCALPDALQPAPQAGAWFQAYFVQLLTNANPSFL

O=C[C@H](O)[C@@H](O)[C@H](O[C@@H]1O[C@H](CO)[C@@H](O)[C@H](O)[C@H]1O)[C@H](O)CO [cellobiose, Cellobiose]
IC50 (TrCel6A): 16 ± 0.5 mM
IC50 (CtCel6A): 28 ± 4.5 mM
IC50 (approximate, by visual inspection of Figure 9B) (TrCel12A; TrCel12A (50 nM), not accountable by Equation 5): few hundred millimolar range
Effect of cellobiose on activity (TrCel12A; TrCel12A, 75 mM cellobiose): apparent activation
Ki (TrCel5A): 0.424 mM

From paper PMC3726336, “Product inhibition of cellulases studied with ^14C-labeled cellulose substrates” (Biotechnology for Biofuels, 2013)
